Laboratory results: article PMC6272137, “Synthesis and Evaluation of Paeonol Derivatives as Potential Multifunctional Agents for the Treatment of Alzheimer’s Disease” (Molecules, 2015)
Where two headings read alike, the source gives them in different places.

Assays:
AChE from electric eel = molecular target: T1, AChE from electric eel (Electrophorus electricus, UniProt O42275); experiment: biochemical; details: n = 3, pH 8.0, 37 °C, read-out: AChE Inhibition (IC50)
T1 construct: purchased Sigma Aldrich
Description: Acetylcholinesterase (AChE, E.C.3.1.1.7, from the electric eel), 5,5'-dithiobis-(2-nitrobenzoic acid) (DTNB), acetylthiocholine iodide (ATCI) and donepezil hydrochloride were purchased from Sigma Aldrich. […] Paeonol and 5a–5d were dissolved in DMSO and then diluted by phosphate buffer (pH 8.0) to seven different concentrations in the range of 10^−3–10^−9 M. AChE solutions were prepared in double-distilled water to 2.0 units/mL in 2 mL aliquots. The assay medium contained phosphate buffer, pH 8.0 (1 mL), 50 µL of 0.01 M DTNB, 10 µL of enzyme and 50 µL of acetylthiocholine iodide. Test compounds were added to assay solution and preincubated at 37 °C with enzyme for 15 min, followed by the addition of substrate. Activity was determined by measuring the increase in absorbance at 412 nm at 1 min intervals at 37 ± 0.2 °C. For determining the blank value, 50 µL buffer replaced the AChE solution.

[1] = DPPH free radical scavenging assay; details: read-out: DPPH Scavenging (IC50), concentration causing 50% loss of initial DPPH free radical, mean ± SD, n = 3, 60 min, methanol
Description: Based on their interaction with DPPH (2,2-diphenyl-1-picrylhydrazyl) free radical, antioxidant activities of the new paeonol derivatives were screened. […] Paeonol is used as the positive control.
The stable radical DPPH was used as a reagent in this spectrophotometric assay. […] After a 60 min incubation period at room temperature in the dark, the absorbance was read at 517 nm against the corresponding blank. Inhibition of free radical DPPH in percent (I%) was calculated using the following Equation (1): (1) I%=(Ablank−Asample/Ablank)×100 Where Ablank is the absorbance of DPPH solution (control solution) against the blank, and Asample is the absorbance of the tested compound against the blank. Concentrations caused 50% loss of the initial DPPH free radical scavenging.

PC12 cells = experiment: Protection of PC12 cells against H2O2-induced cell death (MTT assay); details: then 150 μM H2O2 for 5 h; for cell morphology (phase-contrast microscopy): 40 µM compound, 3 h preincubation

T1 sequence (O42275 24-633): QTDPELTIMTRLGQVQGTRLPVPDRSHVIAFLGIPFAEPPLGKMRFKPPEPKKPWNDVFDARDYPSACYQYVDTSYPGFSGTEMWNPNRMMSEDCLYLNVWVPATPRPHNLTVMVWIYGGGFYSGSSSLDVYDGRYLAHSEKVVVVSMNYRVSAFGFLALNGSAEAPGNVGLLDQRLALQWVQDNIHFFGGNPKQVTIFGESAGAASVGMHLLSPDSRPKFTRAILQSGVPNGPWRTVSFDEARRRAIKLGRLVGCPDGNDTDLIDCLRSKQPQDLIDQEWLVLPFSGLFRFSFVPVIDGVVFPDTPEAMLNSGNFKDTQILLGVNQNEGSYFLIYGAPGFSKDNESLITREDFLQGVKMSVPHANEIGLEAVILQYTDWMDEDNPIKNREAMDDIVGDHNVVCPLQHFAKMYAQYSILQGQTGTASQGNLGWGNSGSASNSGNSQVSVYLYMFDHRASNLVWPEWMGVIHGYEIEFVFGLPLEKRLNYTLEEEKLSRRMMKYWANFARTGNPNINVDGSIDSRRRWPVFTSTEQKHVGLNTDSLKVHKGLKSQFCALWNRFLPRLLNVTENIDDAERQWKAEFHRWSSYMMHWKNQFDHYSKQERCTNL

| Compound | IC50 (AChE from electric eel) | IC50 [1] | IC50 ([1]; listed as paeonol) | protective effect on PC12 cells (MTT) (PC12 cells; 5 μM compound, 3 h pretreatment) | cell morphology (phase-contrast microscopy) (PC12 cells) | protective effect (cell viability, MTT) (PC12 cells; 40 μM compound, 3 h pretreatment, control cells = 100%) |
| --- | --- | --- | --- | --- | --- | --- |
| COc1ccc(C(=O)CN2CCN(Cc3ccc(Cl)cc3)CC2)c(O)c1 [5d, 2-(4-(4-Chlorobenzyl)piperazin-1-yl)-1-(2-hydroxy-4-methoxypheny) ethanone] | 2.63 ± 0.153 µM | 187 ± 13.7 µM |  |  |  |  |
| COc1ccc(C(=O)CN2CCN(Cc3ccccc3)CC2)c(O)c1 [5a, 2-(4-Benzylpiperazin-1-yl)-1-(2-hydroxy-4-methoxyphenyl) ethanone] | 1.59 ± 0.011 µM | 143 ± 8.83 µM |  |  |  |  |
| COc1ccc(C(C)=O)c(O)c1 [Paeonol, 2-hydroxy-4-methoxy-acetophenone] |  | 310 ± 5.41 µM | 310 µM | did not cause any apparent effects | maintained normal cell morphology | 58.9% |
| COc1ccc(C(=O)CN2CCN(Cc3ccc([N+](=O)[O-])cc3)CC2)c(O)c1 [5c, 1-(2-Hydroxy-4-methoxyphenyl)-2-(4-(4-nitrobenzyl)piperazin-1-yl) ethanone] | 7.04 ± 0.032 µM | 192 ± 8.06 µM |  |  |  |  |
| COc1ccc(C(=O)CN2CCN(Cc3ccc(C)cc3)CC2)c(O)c1 [5b, 1-(2-Hydroxy-4-methoxyphenyl)-2-(4-(4-methylbenzyl)piperazin-1-yl) ethanone] | 0.61 ± 0.009 µM | 158 ± 6.88 µM |  |  | maintained normal cell morphology |  |
